Data reported in patent publication US8450317B2, “CXCR3 receptor antagonists” (Boehringer Ingelheim International GmbH, priority 2009, dated 2013).

tested on: LDL receptor knockout model; assay: not given; conditions: dosed prophylactically in a LDL receptor knockout model; cited from earlier work

Row | SMILES | atherosclerotic lesion formation
1 | CCOc1ccc(-n2c(C(C)N(Cc3cccnc3)C(=O)Cc3ccc(F)c(C(F)(F)F)c3)nc3ncccc3c2=O)cc1 (stereo not shown) [NBI-74330] | significantly attenuated atherosclerotic lesion formation

molecular target: CXCR3 (Macaca fascicularis, UniProt A0A2K5UV19); assay: functional cellular assay measuring calcium flux in CXCR3 transfected cells (block of CXCR3/IP-10 interaction); assay type: cell-based, Cyno; conditions: IP-10 induced intracellular calcium flux; Cyno-CHO cells stably expressing recombinant CXCR3 and G-alpha-16; IP-10 at EC80; read-out: IC50
Procedure, shortened: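 Inhibition of IP-10-induced calcium flux at 10 microM final compound, 15 min room-temperature preincubation, with IP-10 at EC80. Cells: CHO stably transfected with cynomolgus CXCR3 plus G-alpha-16, dye-loaded (Ca-4, 2 mM probenecid, HBSS/HEPES pH 7.4) 1 h at 37° C.; fluorescence ex 480/em 540 nm.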

CXCR3, sequence (A0A2K5UV19 entry or part of it): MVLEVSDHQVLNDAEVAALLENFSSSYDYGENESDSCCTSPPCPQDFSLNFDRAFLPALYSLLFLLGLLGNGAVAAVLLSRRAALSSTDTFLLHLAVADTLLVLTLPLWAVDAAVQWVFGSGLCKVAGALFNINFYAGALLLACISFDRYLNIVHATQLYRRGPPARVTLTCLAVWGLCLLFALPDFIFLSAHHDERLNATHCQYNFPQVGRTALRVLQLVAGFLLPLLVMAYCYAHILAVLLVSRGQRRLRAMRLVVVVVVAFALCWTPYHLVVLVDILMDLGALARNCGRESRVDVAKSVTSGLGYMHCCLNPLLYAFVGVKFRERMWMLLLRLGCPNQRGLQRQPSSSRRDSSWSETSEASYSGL

Row | SMILES | IC50 [nM]
2 | O=C(Cn1ccc2cccnc21)N1CCN(c2ccc(F)cc2-c2cnc(N3CCOCC3)nc2)CC1 [1-(4-{4-fluoro-2-[2-(morpholin-4-yl)pyrimidin-5-yl]phenyl}piperazin-1-yl)-2-(1H-pyrrolo[2,3-b]pyridin-1-yl)ethanone] | 14
3 | O=C(CNc1nccs1)N1CCN(c2ccccc2-c2cnc(N3CCOCC3)nc2)CC1 [1-{4-[2-(2-Morpholin-4-yl-pyrimidin-5-yl)-phenyl]-piperazin-1-yl}-2-(thiazol-2-ylamino)-ethanone] | 35
4 | CS(=O)(=O)c1ncc(-c2cc(F)ccc2N2CCN(C(=O)CN3Cc4ccccc4C3=O)CC2)cn1 [2-[2-(4-{4-fluoro-2-[2-(methylsulfonyl)pyrimidin-5-yl]phenyl}piperazin-1-yl)-2-oxoethyl]-2,3-dihydro-1H-isoindol-1-one] | 249
5 | COc1ccc(-c2ccccc2N2CCN(C(=O)Cn3nc(C)cc3C)CC2)cn1 [2-(3,5-Dimethyl-pyrazol-1-yl)-1-{4-[2-(6-methoxy-pyridin-3-yl)-phenyl]-piperazin-1-yl}-ethanone] | 58
6 | Cc1cc(C)n(CC(=O)N2CCN(c3ccc(C(F)(F)F)cc3-c3cnc(N4CCC(S(C)(=O)=O)CC4)nc3)CC2C)n1 (stereo not shown) [2-(3,5-dimethyl-1H-pyrazol-1-yl)-1-{2-methyl-4-[2-{2-[4-(methylsulfonyl)piperidin-1-yl]pyrimidin-5-yl}-4-(trifluoromethyl)phenyl]piperazin-1-yl}ethanone] | 7
7 | CC1CN(c2ccccc2-c2cnc(N3CCC(S(C)(=O)=O)CC3)nc2)CCN1C(=O)Cn1cnc2cccnc21 (stereo not shown) [2-(3H-imidazo[4,5-b]pyridin-3-yl)-1-[2-methyl-4-(2-{2-[4-(methylsulfonyl)piperidin-1-yl]pyrimidin-5-yl}phenyl)piperazin-1-yl]ethanone] | 14
8 | CC1CN(c2ccc(F)cc2-c2cnc(N3CCC(S(C)(=O)=O)CC3)nc2)CCN1C(=O)CN1Cc2ccccc2C1=O (stereo not shown) [2-{2-[4-(4-fluoro-2-{2-[4-(methylsulfonyl)piperidin-1-yl]pyrimidin-5-yl}phenyl)-2-methylpiperazin-1-yl]-2-oxoethyl}-2,3-dihydro-1H-isoindol-1-one] | 10
9 | O=C(Cn1ccc2cccnc21)N1CCN(c2ccccc2-c2cnc(N3CCCOCC3)nc2)CC1 [1-{4-[2-(2-[1,4]Oxazepan-4-yl-pyrimidin-5-yl)-phenyl]-piperazin-1-yl}-2-pyrrolo[2,3-b]pyridin-1-yl-ethanone] | 9
10 | COc1ncc(-c2ccccc2N2CCN(C(=O)Cn3c(=O)n(C)c4ccccc43)CC2)cn1 [1-(2-{4-[2-(2-Methoxy-pyrimidin-5-yl)-phenyl]-piperazin-1-yl}-2-oxo-ethyl)-3-methyl-1,3-dihydro-benzoimidazol-2-one] | 11
11 | Cc1cc(C)n(CC(=O)N2CCN(c3ccccc3-c3cnc(N4CC(F)(F)C4)nc3)CC2)n1 [1-(4-{2-[2-(3,3-Difluoro-azetidin-1-yl)-pyrimidin-5-yl]-phenyl}-piperazin-1-yl)-2-(3,5-dimethyl-pyrazol-1-yl)-ethanone] | 7
12 | O=C(CNc1ccncc1)N1CCN(c2ccccc2-c2cnc(N3CCOCC3)nc2)CC1 [1-{4-[2-(2-Morpholin-4-yl-pyrimidin-5-yl)-phenyl]-piperazin-1-yl}-2-(pyridin-4-ylamino)-ethanone] | 27
13 | Cc1cc(C)n(CC(=O)N2CCN(c3ccccc3-c3cnc(N4CCCC4)nc3)CC2)n1 [2-(3,5-Dimethyl-pyrazol-1-yl)-1-{4-[2-(2-pyrrolidin-1-yl-pyrimidin-5-yl)-phenyl]-piperazin-1-yl}-ethanone] | 7
14 | CC1CN(c2ccc(C(F)(F)F)cc2-c2cnc(S(C)(=O)=O)nc2)CCN1C(=O)CN1Cc2ccccc2C1=O (stereo not shown) [2-[2-(2-methyl-4-{2-[2-(methylsulfonyl)pyrimidin-5-yl]-4-(trifluoromethyl)phenyl}piperazin-1-yl)-2-oxoethyl]-2,3-dihydro-1H-isoindol-1-one] | 101
15 | CSc1ncc(-c2cc(Cl)ccc2N2CCN(C(=O)Cn3nc(C)cc3C)CC2)cn1 [1-{4-[4-Chloro-2-(2-methylsulfanyl-pyrimidin-5-yl)-phenyl]-piperazin-1-yl}-2-(3,5-dimethyl-pyrazol-1-yl)-ethanone] | 7
16 | CN1CCN(c2ncc(-c3cc(F)ccc3N3CCN(C(=O)Cn4ccc5cccnc54)CC3)cn2)CC1 [1-(4-{4-fluoro-2-[2-(4-methylpiperazin-1-yl)pyrimidin-5-yl]phenyl}piperazin-1-yl)-2-(1H-pyrrolo[2,3-b]pyridin-1-yl)ethanone] | 20
17 | CNc1ncc(-c2ccccc2N2CCN(C(=O)Cn3ccc4cccnc43)CC2)cn1 [1-{4-[2-(2-Methylamino-pyrimidin-5-yl)-phenyl]-piperazin-1-yl}-2-pyrrolo[2,3-b]pyridin-1-yl-ethanone] | 7
18 | CS(=O)(=O)c1ncc(-c2cc(F)ccc2N2CCN(C(=O)Cn3c(=O)[nH]c4ccccc43)CC2)cn1 [1-[2-(4-{4-fluoro-2-[2-(methylsulfonyl)pyrimidin-5-yl]phenyl}piperazin-1-yl)-2-oxoethyl]-1,3-dihydro-2H-benzimidazol-2-one] | 47
19 | CSc1ncc(-c2ccccc2N2CCN(C(=O)Cn3ccc4cccnc43)CC2)cn1 [1-{4-[2-(2-Methylsulfanyl-pyrimidin-5-yl)-phenyl]-piperazin-1-yl}-2-pyrrolo[2,3-b]pyridin-1-yl-ethanone] | 4
20 | Cc1cn(CC(=O)N2CCN(c3ccccc3-c3ccc(C#N)nc3)CC2)c(C)n1 [5-(2-{4-[2-(2,4-Dimethyl-imidazol-1-yl)-acetyl]-piperazin-1-yl}-phenyl)-pyridine-2-carbonitrile] | 47
21 | O=C(Cn1c(=O)[nH]c2ccccc21)N1CCN(c2ccccc2-c2ccccc2)CC1 [1-[2-(4-Biphenyl-2-yl-piperazin-1-yl)-2-oxo-ethyl]-1,3-dihydro-benzoimidazol-2-one] | 140
22 | O=C(Cn1ccc2ccncc21)N1CCN(c2ccc(F)cc2-c2cnc(N3CCOCC3)nc2)CC1 [1-(4-{4-fluoro-2-[2-(morpholin-4-yl)pyrimidin-5-yl]phenyl}piperazin-1-yl)-2-(1H-pyrrolo[2,3-c]pyridin-1-yl)ethanone] | 13
23 | CN1CCN(c2ncc(-c3cc(F)ccc3N3CCN(C(=O)CN4Cc5ccccc5C4=O)CC3)cn2)CC1 [2-[2-(4-{4-fluoro-2-[2-(4-methylpiperazin-1-yl)pyrimidin-5-yl]phenyl}piperazin-1-yl)-2-oxoethyl]-2,3-dihydro-1H-isoindol-1-one] | 26
24 | CC1CN(c2ccc(C(F)(F)F)cc2-c2cnc(N3CCC(S(C)(=O)=O)CC3)nc2)CCN1C(=O)Cn1ccc2ccncc21 (stereo not shown) [1-{2-methyl-4-[2-{2-[4-(methylsulfonyl)piperidin-1-yl]pyrimidin-5-yl}-4-(trifluoromethyl)phenyl]piperazin-1-yl}-2-(1H-pyrrolo[2,3-c]pyridin-1-yl)ethanone] | 7
25 | COc1ncc(-c2ccccc2N2CCN(C(=O)Cn3ccc4ccncc43)CC2)cn1 [1-{4-[2-(2-Methoxy-pyrimidin-5-yl)-phenyl]-piperazin-1-yl}-2-pyrrolo[2,3-c]pyridin-1-yl-ethanone] | 9
26 | O=C(Cn1ccc2cccnc21)N1CCN(c2ccc(C(F)(F)F)cc2-c2cnc(N3CCOCC3)nc2)CC1 [1-{4-[2-(2-Morpholin-4-yl-pyrimidin-5-yl)-4-trifluoromethyl-phenyl]-piperazin-1-yl}-2-pyrrolo[2,3-b]pyridin-1-yl-ethanone] | 15
27 | COc1ncc(-c2cc(C(F)(F)F)ccc2N2CCN(C(=O)Cn3nc(C)cc3C)CC2)cn1 [2-(3,5-Dimethyl-pyrazol-1-yl)-1-{4-[2-(2-methoxy-pyrimidin-5-yl)-4-trifluoromethyl-phenyl]-piperazin-1-yl}-ethanone] | 8
28 | COc1cc(NC(=O)c2cc(F)ccc2N2CCN(C(=O)Cn3ccc4cccnc43)[C@H](C)C2)ccn1 [5-fluoro-N-(2-methoxypyridin-4-yl)-2-[(3R)-3-methyl-4-(1H-pyrrolo[2,3-b]pyridin-1-ylacetyl)piperazin-1-yl]benzamide] | 9
